Assay results as given in paper PMC10004195, “Novel Dual-Target Kinase Inhibitors of EGFR and ALK Were Designed, Synthesized, and Induced Cell Apoptosis in Non-Small Cell Lung Cancer” (Molecules, 2023).
Read-outs that look alike come from different tables or passages of the source.

Tests used:
[1] = test system: p-AKT; assay: Western blot, p-AKT; type: cell-based, human; details: WB, 5, 10 and 100 nM, 3 h treatment
Experimental: (§1) Four kinases (EGFR, EGFR^L858R/T790M, ALK, and EML4-ALK) were tested using an ELISA assay. […] There was no effect on the wild-type EGFR or ALK kinases triggered by the compound. Consequently, the selection of the compound was good as both compounds balanced IC50 against EGFR and ALK, respectively. […] Following that, fluorescence assays were used to measure the phosphorylation of the EGFR and ALK protein affect with compound 9j at the cellular level. […] Next, WB assay was used to test the protein expression of H1975 and H2228 cells at the concentration of 5, 10, and 100 nM.
(§2) H1975 (H2228) cells seeded in 60 mm dishes at a density of 5 × 10^5 cells/well were incubated with or without compound 9j (0, 5, 10, 100 nM) for 2–4 h. After treatment, cells were stained as previously described.

[2] = test system: nontumorigenic cell lines
Source text: (§3) It is critical to evaluate the balance between the safety and efficacy of drugs for the development of new drugs; thus, we then conducted a cytotoxicity test on […] types of nontumorigenic cell lines from different origins, including LO2 (human normal liver cells), HK2 (human kidney proximal convoluted tubule epithelial cells), HLF (human embryonic lung fibroblast), 293A (human embryonic kidney cells), and HUVEC (human umbilical vein endothelial cells). […] In addition, we evaluated the compound’s safety in vivo by performing acute toxicity tests in mice, and 9j was injected intravenously at concentrations of 100 mg/kg, 150 mg/kg, and 300 mg/kg.
(§4) A total of 7000 cells per well were seeded in a 96-well plate with at least three technical replicates; then, exposed to different concentrations (10, 5, 1, 0.1, 0.05, 0.01 uM) of the test compounds for 72 h. After the treatment, CCK8 (Sigma, St. Louis, MO, USA) was added to each well under sterile conditions (to a final concentration of 10% of the total volume) and the plates were incubated for 2–4 h at 37 °C. Absorbance was measured at 450 nm in a microplate reader.

[3] = test system: 293A (human embryonic kidney cells); assay: Cytotoxicity test on nontumorigenic cells, 293A; type: cell-based
Source text: as §3, §4

[4] = target: EGFR wild-type kinase (Homo sapiens, UniProt P00533); assay: Kinase ELISA assay, wild-type EGFR; type: biochemical
Sequence of EGFR wild-type kinase (P00533 25-1210): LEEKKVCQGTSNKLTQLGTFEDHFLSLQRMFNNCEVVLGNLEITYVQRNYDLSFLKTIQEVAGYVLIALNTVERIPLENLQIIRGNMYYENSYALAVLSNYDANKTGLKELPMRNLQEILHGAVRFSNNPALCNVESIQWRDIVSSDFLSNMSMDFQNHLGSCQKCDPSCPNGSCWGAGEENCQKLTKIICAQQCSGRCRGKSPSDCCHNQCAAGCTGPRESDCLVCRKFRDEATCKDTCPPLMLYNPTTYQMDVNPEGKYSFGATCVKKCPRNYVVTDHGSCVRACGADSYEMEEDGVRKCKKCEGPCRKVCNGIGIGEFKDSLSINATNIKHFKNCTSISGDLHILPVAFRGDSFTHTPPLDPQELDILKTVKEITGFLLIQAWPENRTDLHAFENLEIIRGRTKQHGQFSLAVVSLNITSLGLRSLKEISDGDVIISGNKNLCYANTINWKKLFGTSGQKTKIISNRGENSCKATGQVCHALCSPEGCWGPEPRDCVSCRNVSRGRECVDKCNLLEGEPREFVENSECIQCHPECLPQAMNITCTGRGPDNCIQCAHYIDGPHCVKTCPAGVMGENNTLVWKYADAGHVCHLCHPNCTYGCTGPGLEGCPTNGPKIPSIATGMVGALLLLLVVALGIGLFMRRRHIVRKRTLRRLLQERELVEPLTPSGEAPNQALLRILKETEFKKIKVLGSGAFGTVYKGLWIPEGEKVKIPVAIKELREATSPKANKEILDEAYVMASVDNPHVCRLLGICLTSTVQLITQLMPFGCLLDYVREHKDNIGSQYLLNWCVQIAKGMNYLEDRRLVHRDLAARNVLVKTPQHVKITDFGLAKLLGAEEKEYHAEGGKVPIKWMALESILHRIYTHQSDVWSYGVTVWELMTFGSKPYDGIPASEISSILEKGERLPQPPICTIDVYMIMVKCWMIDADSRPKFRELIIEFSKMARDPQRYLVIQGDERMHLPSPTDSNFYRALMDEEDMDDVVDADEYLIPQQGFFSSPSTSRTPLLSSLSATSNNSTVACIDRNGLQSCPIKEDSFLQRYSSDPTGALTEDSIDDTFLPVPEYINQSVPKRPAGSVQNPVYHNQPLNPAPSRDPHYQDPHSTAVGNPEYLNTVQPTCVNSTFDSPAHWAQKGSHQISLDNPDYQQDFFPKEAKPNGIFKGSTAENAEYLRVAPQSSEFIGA
Experimental: as §1

[5] = test system: H1975 cells; assay: Transwell migration and invasion assay; type: cell-based, human
Experimental: The migration and invasion of tumor cells directly contribute to metastasis. Metastasis is the leading cause of death in cancer patients. To determine the ability of 9j to inhibit tumor cell migration, the cell scratching assay was performed. Following scratching, phase contrast pictures were taken of the scratched and healing cell monolayers.
Migration assay was performed using an 8 um pore Boyden chamber (24-well, #353097, Corning, NY, USA), and incubated in the presence or absence of compound 9j. A total of 50,000 cells were seeded in serum-free medium in the top chamber and allowed to migrate for 48 h toward the bottom chamber containing 10% fetal bovine serum medium. Cells were fixed and permeabilized with cold 70% ethanol and methanol, and stained with 0.4% crystal violet. The average number of migrating cells was evaluated from at least four independent microscope fields.

[6] = target: ALK wild-type kinase (Homo sapiens, UniProt Q9UM73); assay: Kinase ELISA assay, wild-type ALK; type: biochemical
Sequence of ALK wild-type kinase (Q9UM73 19-1620): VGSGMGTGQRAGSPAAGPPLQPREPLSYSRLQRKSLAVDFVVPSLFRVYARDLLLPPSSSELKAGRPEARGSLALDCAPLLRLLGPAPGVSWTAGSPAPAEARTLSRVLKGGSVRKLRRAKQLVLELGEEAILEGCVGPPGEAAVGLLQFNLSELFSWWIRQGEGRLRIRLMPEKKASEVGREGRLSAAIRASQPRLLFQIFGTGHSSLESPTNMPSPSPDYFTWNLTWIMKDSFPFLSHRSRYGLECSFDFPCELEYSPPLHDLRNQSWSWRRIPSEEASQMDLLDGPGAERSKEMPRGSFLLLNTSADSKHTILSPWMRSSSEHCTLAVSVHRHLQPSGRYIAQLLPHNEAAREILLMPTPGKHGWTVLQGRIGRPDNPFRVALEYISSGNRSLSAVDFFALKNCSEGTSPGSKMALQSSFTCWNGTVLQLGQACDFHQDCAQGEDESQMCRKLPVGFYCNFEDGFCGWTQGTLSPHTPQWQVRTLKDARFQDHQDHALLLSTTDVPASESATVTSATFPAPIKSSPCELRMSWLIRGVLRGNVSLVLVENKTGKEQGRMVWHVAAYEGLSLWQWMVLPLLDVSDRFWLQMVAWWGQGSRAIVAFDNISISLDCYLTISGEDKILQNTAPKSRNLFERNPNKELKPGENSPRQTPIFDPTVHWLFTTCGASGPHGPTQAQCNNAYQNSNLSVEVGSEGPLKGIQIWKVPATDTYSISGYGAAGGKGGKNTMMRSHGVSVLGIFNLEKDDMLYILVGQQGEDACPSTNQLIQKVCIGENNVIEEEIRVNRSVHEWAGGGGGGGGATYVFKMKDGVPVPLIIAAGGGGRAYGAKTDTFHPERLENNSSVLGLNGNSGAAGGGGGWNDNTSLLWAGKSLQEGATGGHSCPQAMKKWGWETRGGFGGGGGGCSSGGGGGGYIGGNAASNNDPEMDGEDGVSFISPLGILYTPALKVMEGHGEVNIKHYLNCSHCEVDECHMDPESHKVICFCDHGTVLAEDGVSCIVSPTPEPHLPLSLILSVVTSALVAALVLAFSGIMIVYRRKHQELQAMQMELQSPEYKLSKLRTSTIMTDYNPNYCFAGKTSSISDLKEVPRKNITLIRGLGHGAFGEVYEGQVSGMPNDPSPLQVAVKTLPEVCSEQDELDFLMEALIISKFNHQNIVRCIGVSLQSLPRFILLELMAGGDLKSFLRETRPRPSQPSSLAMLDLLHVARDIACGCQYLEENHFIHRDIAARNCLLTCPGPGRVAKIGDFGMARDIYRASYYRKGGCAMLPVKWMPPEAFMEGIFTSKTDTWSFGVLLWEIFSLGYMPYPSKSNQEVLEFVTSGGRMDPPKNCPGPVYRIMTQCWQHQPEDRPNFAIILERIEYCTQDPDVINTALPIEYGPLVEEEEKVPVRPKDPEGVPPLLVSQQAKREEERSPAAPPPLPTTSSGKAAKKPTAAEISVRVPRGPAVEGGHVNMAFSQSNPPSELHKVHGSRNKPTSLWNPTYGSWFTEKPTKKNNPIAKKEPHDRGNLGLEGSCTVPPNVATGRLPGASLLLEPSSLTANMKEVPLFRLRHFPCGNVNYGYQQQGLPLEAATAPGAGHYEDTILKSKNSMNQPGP
Experimental: as §1

[7] = test system: phosphorylated ALK (p-ALK); assay: Immunofluorescence assay of phosphorylated ALK; type: cell-based, human; details: fluorescence assay, treatment for 2 to 4 h
Experimental: as §1
Figure 2 (A) The activity of compound 9j against four kinases (EGFR, ALK, EGFR ^L858R T790M, and EML4-ALK). (B) H1975 and H2228 cells were treated with 9j for 2–4 h; the staining for phosphorylated EGFR (p-EGFR) and phosphorylated ALK (p-ALK) was shown as red fluorescence. (C) WB analysis of phosphorylated proteins in drug-treated H1975 and H2228 cells.

[8] = test system: HLF (human embryonic lung fibroblast); assay: Cytotoxicity test on nontumorigenic cells, HLF; type: cell-based
Source text: as §3, §4

[9] = test system: p-EGFR; assay: Western blot, p-EGFR; type: cell-based, human; details: WB, 5, 10 and 100 nM, 3 h treatment
Experimental: as §1, §2

[10] = test system: H1975 cells; assay: Apoptosis assay by flow cytometry (annexin V / PI); type: cell-based, human; details: 48 h, control 6.07%
Source text: The death of cells occurs by apoptosis, and the uncontrolled division and multiplication of cells causes cancer. Inhibiting cellular apoptosis is primarily responsible for cancer cell survival, since cellular apoptosis is negatively correlated with cell growth. We then verified the antitumor effect of compound 9j by inducing apoptosis through flow cytometry.
To assay the number of apoptotic cells, cells were stained with allo-phycocyanin–annexin V (#550475, BD Pharmingen, Becton Drive Franklin Lakes, NJ, USA) for 15 min; then, they were washed and resuspended in 1:500 propidium iodide (#81845, Sigma-Aldrich, St. Louis, Mo, USA) viability marker, and acquired on LSRFortessa. Data were analyzed with FlowJo software. Annexin V+ cells were considered as apoptotic cells.

[11] = target: EML4-ALK (Homo sapiens, UniProt Q9UM73); assay: Kinase ELISA assay, EML4-ALK; type: biochemical; details: read-out: IC50 against EML4-ALK
Sequence of EML4-ALK (Q9UM73 1058-1620): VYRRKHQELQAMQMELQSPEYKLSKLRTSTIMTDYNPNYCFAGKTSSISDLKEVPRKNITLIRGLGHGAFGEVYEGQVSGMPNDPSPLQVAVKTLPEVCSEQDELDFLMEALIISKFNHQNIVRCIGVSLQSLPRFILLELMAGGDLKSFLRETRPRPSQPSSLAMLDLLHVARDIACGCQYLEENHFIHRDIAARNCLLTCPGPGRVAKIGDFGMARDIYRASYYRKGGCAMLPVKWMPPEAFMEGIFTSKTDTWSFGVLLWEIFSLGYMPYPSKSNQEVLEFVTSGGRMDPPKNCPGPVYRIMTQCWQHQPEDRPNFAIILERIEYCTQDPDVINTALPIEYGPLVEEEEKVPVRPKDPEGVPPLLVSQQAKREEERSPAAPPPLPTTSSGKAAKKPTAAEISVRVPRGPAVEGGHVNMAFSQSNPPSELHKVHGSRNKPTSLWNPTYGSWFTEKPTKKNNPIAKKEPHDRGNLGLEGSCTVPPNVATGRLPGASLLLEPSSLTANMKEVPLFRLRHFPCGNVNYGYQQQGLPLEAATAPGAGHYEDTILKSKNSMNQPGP
Sequence of EML4-ALK (Q9HC35 1-496, further chain): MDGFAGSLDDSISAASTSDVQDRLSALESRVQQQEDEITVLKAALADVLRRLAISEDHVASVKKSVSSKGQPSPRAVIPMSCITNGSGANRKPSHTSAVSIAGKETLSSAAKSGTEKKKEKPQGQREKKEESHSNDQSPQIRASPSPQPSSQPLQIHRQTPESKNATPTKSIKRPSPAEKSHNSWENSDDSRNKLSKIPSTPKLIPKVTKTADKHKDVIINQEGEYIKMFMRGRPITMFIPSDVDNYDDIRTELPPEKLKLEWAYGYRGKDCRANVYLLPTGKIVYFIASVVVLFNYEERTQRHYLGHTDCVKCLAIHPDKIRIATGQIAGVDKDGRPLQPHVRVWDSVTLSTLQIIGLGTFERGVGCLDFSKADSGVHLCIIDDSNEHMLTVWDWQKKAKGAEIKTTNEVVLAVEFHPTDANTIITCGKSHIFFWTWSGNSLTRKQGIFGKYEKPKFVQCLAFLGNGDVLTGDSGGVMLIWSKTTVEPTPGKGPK
Experimental: as §1

[12] = test system: LO2 (human normal liver cells); assay: Cytotoxicity test on nontumorigenic cells, LO2; type: cell-based
Source text: as §3, §4

[13] = test system: H1975 (EGFR T790M/L858R) cells; assay: CCK8 antiproliferative assay, H1975 cells; type: cell-based, human; details: Homo sapiens
Source text: The human cancer cell lines (H1975, H2228) used in this study were purchased from the Guangzhou ginny ou biotechnology Co., Ltd. (Guangzhou, China). The human cancer cell lines (NCI-H522) used in this study were purchased from the Shenzhen Haodi Huatuo Biotechnology Co., LTD (Shenzhen, China). The human cancer cell lines (LOVO, HLF, BJ, LO2) used in this study were purchased from the Laboratory Animal Service Center at Sun Yat-sen University (Guangzhou, China). […] Cell lines LOVO, HLF, BJ, and LO2 were cultivated in DMEM containing 10% (v/v) heat-inactivated fetal bovine serum (FBS), 100 units/mL penicillin, and 100 μg/mL streptomycin.

[14] = test system: HK2 (human kidney proximal convoluted tubule epithelial cells); assay: Cytotoxicity test on nontumorigenic cells, HK2; type: cell-based
Source text: as §3, §4

## C=CC(=O)Nc1cc(Nc2ncc(Cl)c(Nc3ccc(Cl)cc3[S+]([O-])C(C)C)n2)c(OC)cc1C1CCN(C)CC1 (stereo not drawn) [9j, N-(5-((5-Chloro-4-((4-chloro-2-(isopropylsulfinyl)phenyl)amino)pyrimidin-2-yl)amino)-4-methoxy-2-(1-methylpiperidin-4-yl)phenyl)acrylamide]
[1]
  expression of p-AKT: inhibited
[2]
  toxicity toward the nontumorigenic cell lines: very little apparent toxicity
[3]; 293A vs H1975
  Selectivity Ratio (IC50 human normal cells)/(IC50 H1975), 293A: 255.5
[3]; Homo sapiens, 293A, mean ± SE, read-out: Toxicity to normal cells, IC50 293A
  IC50: 20000 ± 50 nM
[4]
  IC50: 236 ± 27 nM
[5]
  invasion ability: reduced its invasion ability in a concentration-dependent manner
[6]
  IC50: 130 ± 15 nM
[7]
  expression level of phosphorylated ALK protein: decreased significantly
[8]; HLF vs H1975
  Selectivity Ratio (IC50 human normal cells)/(IC50 H1975), HLF: 357.3
[8]; Homo sapiens, Fibroblast, HLF, mean ± SE, read-out: Toxicity to normal cells, IC50 HLF
  IC50: 27870 ± 10 nM
[9]
  expression of p-EGFR: inhibited
[10]; 10 nM
  apoptotic rate: 12.7%
[10]; 50 nM
  apoptotic rate: 26.8%
[10]; 100 nM
  apoptotic rate: 47.67%
[11]
  IC50: 56.3 ± 0.3 nM
[12]; Homo sapiens, LO2, mean ± SE, read-out: Toxicity to normal cells, IC50 LO2
  IC50: 23960 ± 30 nM
[12]; LO2 vs H1975
  Selectivity Ratio (IC50 human normal cells)/(IC50 H1975), LO2: 306.1
[13]; NCI-H1975, 72 h, CCK8 assay, 72 h, H1975 (EGFR T790M/L858R), read-out: IC50 H1975
  IC50: 78.3 ± 30 nM
[13]; NCI-H1975, H1975, mean ± SE, unit inferred, read-out: IC50 H1975 (Table 2)
  IC50: 78.3 ± 30 nM
[14]; HK2 vs H1975
  Selectivity Ratio (IC50 human normal cells)/(IC50 H1975), HK2: 329.6
[14]; Homo sapiens, Epithelial cell, HK2, mean ± SE, read-out: Toxicity to normal cells, IC50 HK2
  IC50: 25710 ± 80 nM
